From ChEMBL document CHEMBL1201862, “PubChem BioAssay data set” (2004)
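These data come from cells grown in 96-well plates and exposed to compound for 48 hours at five concentrations. At the GI50, growth is halved.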 The source made the active and inactive calls. Cut-off read from the data, not from the text of the source: active = GI50 up to about 1.1 µM and inactive = higher.

What was measured:
Assay in all cases: inhibition of tumour cell growth, NCI panel, 48 h
SK-MEL-2 = test system: SK-MEL-2
RPMI-8226 = test system: RPMI-8226
OVCAR-3 = test system: OVCAR-3
BT-549 = test system: BT-549
TK-10 = test system: TK-10
MDA-MB-435 = test system: MDA-MB-435
SW-620 = test system: SW-620
UO-31 = test system: UO-31
SF-539 = test system: SF-539
RXF 393 = test system: RXF 393
NCI-H460 = test system: NCI-H460
U-251 = test system: U-251
LOX IMVI = test system: LOX IMVI
CCRF-CEM = test system: CCRF-CEM
NCI/ADR-RES = test system: NCI/ADR-RES
SN12C = test system: SN12C
HL-60 = test system: HL-60
OVCAR-4 = test system: OVCAR-4
HOP-62 = test system: HOP-62

Measured: GI50

CCNc1nc2ccccc2nc1NCC
inactive: SK-MEL-2 > 100 µM | RPMI-8226 > 100 µM | OVCAR-3 > 100 µM | BT-549 > 100 µM | TK-10 > 100 µM | MDA-MB-435 > 100 µM | SW-620 > 100 µM | UO-31 > 100 µM | SF-539 > 100 µM | RXF 393 > 100 µM | NCI-H460 > 100 µM | U-251 > 100 µM | LOX IMVI > 100 µM | CCRF-CEM > 100 µM | NCI/ADR-RES > 100 µM | SN12C > 100 µM | HL-60 > 100 µM

CCCCCCCCCOC(=S)NC
inactive: SK-MEL-2 19.5 µM | RPMI-8226 20 µM | OVCAR-3 19.9 µM | TK-10 21.3 µM | SW-620 20.9 µM | UO-31 11.2 µM | SF-539 17.6 µM | RXF 393 > 10 µM | NCI-H460 19.7 µM | U-251 16.9 µM | LOX IMVI 18.2 µM | CCRF-CEM 19.7 µM | SN12C 18.4 µM | HL-60 15.4 µM | OVCAR-4 19.6 µM

CCOC(=O)Cc1csc2[n+]1C(=O)/C(=C\c1cccc(Cl)c1Cl)S2
inactive: SK-MEL-2 10.6 µM | OVCAR-3 7.05 µM | BT-549 17.6 µM | TK-10 16 µM | MDA-MB-435 13.7 µM | SW-620 18.6 µM | UO-31 12.7 µM | SF-539 22.3 µM | RXF 393 16.7 µM | NCI-H460 14.9 µM | U-251 16.6 µM | LOX IMVI 18.4 µM | CCRF-CEM 12.7 µM | NCI/ADR-RES 16.7 µM | HOP-62 20.8 µM | SN12C 16.2 µM | HL-60 19.5 µM | OVCAR-4 11.6 µM

CN1C(c2ccccc2)CC(C)(O)CC1c1ccccc1 (stereo not drawn)
inactive: SK-MEL-2 > 100 µM | RPMI-8226 > 100 µM | OVCAR-3 > 100 µM | TK-10 > 100 µM | SW-620 > 100 µM | UO-31 > 100 µM | SF-539 > 100 µM | RXF 393 > 100 µM | NCI-H460 > 100 µM | U-251 > 100 µM | LOX IMVI > 100 µM | CCRF-CEM > 100 µM | HOP-62 > 100 µM | SN12C > 100 µM | HL-60 99.5 µM | OVCAR-4 > 100 µM

O=C(CNc1ccccc1Cl)Nn1c(-c2ccccc2)nc2ccccc2c1=O
inactive: RPMI-8226 28.7 µM | OVCAR-3 23.1 µM | BT-549 12.8 µM | TK-10 44 µM | MDA-MB-435 18.5 µM | SW-620 19.8 µM | UO-31 47.1 µM | SF-539 21.6 µM | RXF 393 20.3 µM | NCI-H460 78.5 µM | U-251 17.4 µM | LOX IMVI 14.7 µM | CCRF-CEM 13.4 µM | HOP-62 27.9 µM | SN12C 34.4 µM | HL-60 22.4 µM | OVCAR-4 26.4 µM

C/C=C1\CC2C(=O)CCC2C2c3ccccc3OC12 (stereo not drawn)
active: SN12C < 0.01 µM
inactive: SK-MEL-2 > 100 µM | RPMI-8226 > 100 µM | OVCAR-3 > 100 µM | TK-10 > 100 µM | MDA-MB-435 > 100 µM | SW-620 > 100 µM | UO-31 > 100 µM | SF-539 > 100 µM | RXF 393 > 100 µM | NCI-H460 > 100 µM | U-251 > 100 µM | LOX IMVI > 100 µM | CCRF-CEM > 100 µM | NCI/ADR-RES > 100 µM | HOP-62 > 100 µM | HL-60 87.7 µM | OVCAR-4 > 100 µM

O=[N+]([O-])c1cccc(/C=N\NS(=O)(=O)c2ccc(Cl)cc2)c1O
inactive: SK-MEL-2 76.6 µM | RPMI-8226 55.5 µM | OVCAR-3 65.8 µM | TK-10 > 100 µM | SW-620 > 100 µM | UO-31 67.3 µM | SF-539 54.2 µM | RXF 393 37.8 µM | NCI-H460 82.8 µM | U-251 55.5 µM | LOX IMVI > 100 µM | CCRF-CEM 31.7 µM | HOP-62 > 100 µM | SN12C > 100 µM | HL-60 46.9 µM | OVCAR-4 > 100 µM

Cc1nc2ccc(Cl)cc2c(-n2ccnc2)c1CCn1ccnc1
inactive: SK-MEL-2 19.2 µM | OVCAR-3 32.1 µM | BT-549 19.8 µM | TK-10 30.2 µM | MDA-MB-435 32.1 µM | SW-620 39.4 µM | UO-31 14.5 µM | SF-539 61.4 µM | RXF 393 14.1 µM | NCI-H460 23.2 µM | U-251 40.5 µM | LOX IMVI 21 µM | CCRF-CEM 18 µM | NCI/ADR-RES 2.03 µM | HOP-62 33.3 µM | SN12C 34 µM | HL-60 23.7 µM | OVCAR-4 18.9 µM

CCOCc1c(C)cc(C)c(C2C(C(=O)c3ccccc3)N3c4ccccc4C=CC3C2(C#N)C(=O)OCC)c1C (stereo not drawn)
inactive: RPMI-8226 81.7 µM | OVCAR-3 17.4 µM | BT-549 28.1 µM | MDA-MB-435 38.7 µM | SW-620 67.3 µM | UO-31 49.1 µM | RXF 393 46 µM | NCI-H460 27.9 µM | U-251 85.7 µM | LOX IMVI 35.9 µM | CCRF-CEM 56.4 µM | NCI/ADR-RES 33.7 µM | SN12C 61.5 µM | HL-60 > 100 µM | OVCAR-4 37 µM

O=C(c1ccccc1)[C@H]1Nc2cnccc2C2c3ccccc3CC21 (stereo partly drawn)
active: OVCAR-4 0.564 µM
inactive: SK-MEL-2 11.1 µM | RPMI-8226 7 µM | OVCAR-3 7.69 µM | TK-10 35.1 µM | SW-620 17.9 µM | UO-31 7.21 µM | SF-539 15.7 µM | RXF 393 14.8 µM | NCI-H460 15.1 µM | U-251 11.3 µM | LOX IMVI 1.57 µM | CCRF-CEM 3.27 µM | HOP-62 25 µM | SN12C 8.59 µM | HL-60 4.63 µM

O=C1CCC(=O)c2cc(Br)ccc2N1
inactive: SK-MEL-2 > 100 µM | RPMI-8226 > 67.5 µM | OVCAR-3 > 100 µM | TK-10 > 100 µM | SW-620 > 57.8 µM | UO-31 > 100 µM | SF-539 > 100 µM | RXF 393 > 74.1 µM | NCI-H460 > 100 µM | U-251 99.3 µM | LOX IMVI > 96.6 µM | CCRF-CEM > 68.9 µM | HOP-62 > 100 µM | SN12C > 100 µM | HL-60 > 100 µM | OVCAR-4 > 100 µM

COc1c(C)c(C/C=C(\C)CC/C=C(\C)CC/C=C(\C)CCC=C(C)C)c(OC)c(OC)c1OC
inactive: SK-MEL-2 > 100 µM | OVCAR-3 > 100 µM | BT-549 > 100 µM | TK-10 > 100 µM | MDA-MB-435 > 100 µM | SW-620 > 100 µM | UO-31 > 100 µM | SF-539 > 100 µM | RXF 393 > 100 µM | NCI-H460 > 100 µM | U-251 > 100 µM | LOX IMVI > 100 µM | CCRF-CEM > 100 µM | NCI/ADR-RES > 100 µM | HOP-62 > 100 µM | SN12C > 100 µM | OVCAR-4 > 100 µM

COc1ccc(-n2/c(=N/C(=S)N(C)C)ss/c2=N\C(=S)N(C)C)cc1
inactive: SK-MEL-2 46.9 µM | RPMI-8226 21 µM | OVCAR-3 19.8 µM | TK-10 > 100 µM | SW-620 > 100 µM | UO-31 > 100 µM | SF-539 52.2 µM | RXF 393 29.6 µM | NCI-H460 2.98 µM | U-251 25.6 µM | LOX IMVI > 100 µM | HOP-62 50.7 µM | SN12C > 100 µM | HL-60 17 µM | OVCAR-4 4.7 µM

CC1CCC2c3c([nH]c4ccccc34)C3C(=O)N(c4ccccc4)C(=O)C3C2C1 (stereo not drawn)
inactive: SK-MEL-2 32.5 µM | RPMI-8226 > 100 µM | OVCAR-3 49.8 µM | TK-10 21.7 µM | SW-620 > 250 µM | UO-31 58.3 µM | SF-539 6.64 µM | RXF 393 12.2 µM | NCI-H460 > 250 µM | U-251 64.9 µM | LOX IMVI 42.8 µM | CCRF-CEM 20 µM | HOP-62 32.7 µM | SN12C > 250 µM | HL-60 > 250 µM | OVCAR-4 > 250 µM

O=c1[nH]nc(-c2ccccc2)n1/N=C/c1c(O)ccc2ccccc12
inactive: SK-MEL-2 62.7 µM | RPMI-8226 82.2 µM | OVCAR-3 17.3 µM | BT-549 45.7 µM | TK-10 38.4 µM | MDA-MB-435 56.5 µM | SW-620 37.8 µM | UO-31 36 µM | SF-539 31.2 µM | RXF 393 23.8 µM | U-251 26.1 µM | LOX IMVI 46.9 µM | CCRF-CEM > 100 µM | NCI/ADR-RES 30.3 µM | HOP-62 34.8 µM | SN12C 45.3 µM | OVCAR-4 15.4 µM

NNC(=O)CCC(=O)Nc1ccc(Cl)cc1Cl
inactive: SK-MEL-2 54.6 µM | RPMI-8226 80.5 µM | OVCAR-3 > 100 µM | TK-10 > 100 µM | SW-620 > 100 µM | UO-31 > 100 µM | SF-539 > 100 µM | RXF 393 > 100 µM | NCI-H460 > 100 µM | U-251 > 100 µM | LOX IMVI 43.8 µM | CCRF-CEM > 100 µM | HOP-62 > 100 µM | SN12C > 100 µM | HL-60 94.4 µM | OVCAR-4 > 100 µM

CC(=O)Nc1ccc(/C=C/C(=O)c2sc(-c3cccnc3)nc2C)cc1
inactive: SK-MEL-2 > 100 µM | RPMI-8226 > 100 µM | OVCAR-3 > 100 µM | TK-10 > 100 µM | SW-620 > 100 µM | UO-31 > 100 µM | SF-539 > 100 µM | RXF 393 > 100 µM | NCI-H460 > 100 µM | U-251 > 100 µM | LOX IMVI > 100 µM | CCRF-CEM > 100 µM | HOP-62 > 100 µM | SN12C > 100 µM | HL-60 > 100 µM
